The test system of data set [1] is rat. Conditions: Carcinogenicity, fischer, Oral, Water, dose end: 104 week, group: systemic.
Data set [2] deals with mouse. Conditions: Carcinogenicity; other; Injection; Intraperitoneal; dose end: 50 week; group: systemic; systemic / pathology microscopic / lung / adenoma + systemic / pathology microscopic / lymph node / leukemia granulocytic + systemic / ….
The test system of data set [3] is mouse. The conditions noted are these: Multigenerational reproductive toxicity study, cd1, Oral, Feed, dose end: 2 generation.
Data set [4] has as its system rat. Conditions: Carcinogenicity, fischer, Oral, Feed, dose end: 103 week, group: systemic.
Data set [5] deals with mouse. The conditions noted are these: Subchronic oral toxicity in rodents, b6c3f1, Feed, dose end: 13 week, group: systemic.
Data set [6] has as its system rat. Conditions: Sub-acute repeat dose toxicity, fischer, Oral, Feed, dose end: 14 day, group: systemic.
In data set [7] the test system is rat. The conditions noted are these: Subchronic oral toxicity in rodents, fischer, Feed, dose end: 13 week, group: systemic.
The subject of data set [8] is mouse. The conditions noted are these: Carcinogenicity, b6c3f1, Oral, Feed, dose end: 103 week, group: systemic.
Data set [9] has as its system rat. The conditions noted are these: Developmental neurotoxicity study; long evans; Injection; Subcutaneous; dose end: 90 PND; group: cannot be grouped; reproductive / reproductive performance / sex ratio / sex ratio (% male).
The subject of data set [10] is mouse. The conditions noted are these: Subchronic oral toxicity in rodents, cd1, Feed, dose end: 90 day, group: systemic, systemic / organ weight / liver / absolute + systemic / organ weight / liver / relative to body weight + systemic / organ weight / liver / ….
In data set [11] the test system is mouse. The conditions noted are these: Carcinogenicity; cd1; Oral; Feed; dose end: 18 month; group: systemic; systemic / organ weight / liver / nos + systemic / pathology microscopic / liver / deformity + systemic / pathology microscopic / liver / ….
For data set [12], the system named is rat. The conditions noted are these: Multigenerational reproductive toxicity study, other, Oral, Feed, dose end: 2 generation.
Data set [13] relates to rat. Conditions: Combined chronic toxicity/carcinogenicity, sprague dawley, Oral, Feed, dose end: 104 week, group: systemic.
The subject of data set [14] is mouse. The conditions noted are these: Carcinogenicity; cd1; Oral; Feed; dose end: 18 month; group: systemic; systemic / pathology microscopic / liver / hypertrophy.
Data set [15] relates to dog. The conditions noted are these: Chronic toxicity, beagle, Oral, Feed, dose end: 52 week, group: systemic.
In data set [16] the test system is dog. The conditions noted are these: Chronic toxicity, beagle, Oral, Feed, dose end: 26 week, group: systemic.
For data set [17], the system named is mouse. Conditions: Subchronic oral toxicity in rodents, b6c3f1, Gavage/Intubation, dose end: 20 week, group: systemic, systemic / pathology microscopic / liver / hyperplasia + systemic / pathology microscopic / stomach / hyperkeratosis + systemic / pathology ….
Data set [18] has as its system mouse. Conditions: Carcinogenicity; b6c3f1; Oral; Gavage/Intubation; dose end: 2 year; group: systemic; systemic / pathology microscopic / stomach / carcinoma + systemic / pathology microscopic / stomach / papilloma + systemic / in life ….
Data set [19] relates to rat. The conditions noted are these: Carcinogenicity, fischer, Oral, Gavage/Intubation, dose end: 2 year, group: systemic.
The test system of data set [20] is rat. Conditions: Combined chronic toxicity/carcinogenicity; sprague dawley; Oral; Gavage/Intubation; dose end: 52 week; group: systemic; systemic / pathology microscopic / stomach / [other] + systemic / pathology microscopic / stomach / carcinoma + systemic / pathology ….
The test system of data set [21] is rat. The conditions noted are these: Subchronic oral toxicity in rodents, fischer, Gavage/Intubation, dose end: 24 week, group: systemic.
The mark [22] stands for this setting: systemic / in life observation / body weight / body weight gain + systemic / in life observation / water consumption / water consumption + ….
Setting [23] is: systemic / in life observation / water consumption / water consumption.
Setting [24] is: group: offspring, systemic / in life observation / body weight / offspring (pup) weight.
The mark [25] stands for this setting: group: parental, systemic / in life observation / body weight / body weight + systemic / organ weight / brain / relative to body weight + systemic / organ ….
[26] abbreviates: group: reproductive, reproductive / offspring survival early / birth index / birth index + reproductive / offspring survival early / live fetuses / live fetuses.
Where [27] appears, read: systemic / pathology microscopic / kidney / nephropathy.
[28] abbreviates: systemic / pathology microscopic / kidney / nephropathy + systemic / pathology microscopic / kidney / hyperplasia + systemic / pathology ….
Setting [29] is: systemic / in life observation / body weight / body weight + systemic / pathology microscopic / liver / mineralization + systemic / ….
Where [30] appears, read: systemic / in life observation / food consumption / food consumption.
[31] abbreviates: systemic / in life observation / food consumption / food consumption + systemic / in life observation / body weight / body weight.
[32] abbreviates: systemic / organ weight / kidney / relative to body weight + systemic / organ weight / liver / relative to body weight.
The mark [33] stands for this setting: systemic / in life observation / body weight / body weight + systemic / pathology microscopic / thyroid gland / hyperplasia.
Setting [34] is: group: offspring, systemic / in life observation / body weight / offspring (pup) weight + systemic / in life observation / body weight / offspring (pup) ….
Where [35] appears, read: group: parental, systemic / organ weight / liver / relative to body weight.
Where [36] appears, read: systemic / clinical chemistry / cholesterol / cholesterol + systemic / in life observation / body weight / body weight gain + systemic / ….
The mark [37] stands for this setting: systemic / in life observation / body weight / body weight gain.
Where [38] appears, read: systemic / in life observation / body weight / body weight + systemic / in life observation / body weight / body weight gain + systemic / ….
Setting [39] is: systemic / pathology microscopic / prostate / atrophy + systemic / pathology microscopic / testes / atrophy.
Setting [40] is: systemic / pathology microscopic / prostate / atrophy + systemic / pathology microscopic / testes / atrophy + systemic / pathology ….
Setting [41] is: systemic / pathology microscopic / blood / leukemia + systemic / pathology microscopic / stomach / carcinoma + systemic / pathology ….
The mark [42] stands for this setting: systemic / pathology microscopic / stomach / carcinoma + systemic / pathology microscopic / stomach / papilloma + systemic / pathology ….
Where [43] appears, read: systemic / in life observation / body weight / body weight gain + systemic / in life observation / mortality / mortality + systemic / ….

Turning to `O=c1[nH]cc(F)c(=O)[nH]1` [5-Fluorouracil], in the data set with rat [1] (setting [22]), the lowest observed adverse effect level (LOAEL) was > 7.42 mg/kg/day and the no observed adverse effect level (NOAEL) was ≥ 7.42 mg/kg/day. Further, in the data set on rat [1] (setting [23]), the LEL came to 3.85 mg/kg/day and the NEL is < 3.85 mg/kg/day. In the data set with mouse [2], the LEL was 30 mg/kg/day, the LOAEL is > 30 mg/kg/day, the NEL is < 30 mg/kg/day and the no-observed-adverse-effect level (NOAEL) was ≥ 30 mg/kg/day.
Regarding `CC(=O)Nc1ccc(O)cc1` [Acetaminophen], the LEL is 357 mg/kg/day in the data set on mouse [3] (setting [24]); 1430 mg/kg/day with mouse [3] (setting [25]); 1430 mg/kg/day in the data set on mouse [3] (setting [26]); 30 mg/kg/day in the data set on rat [4] (setting [28]); 930 mg/kg/day in the data set with mouse [5] (systemic / pathology microscopic / liver / cytomegaly + systemic / pathology microscopic / liver / karyomegaly + systemic / pathology …); 625 mg/kg/day with rat [6] (setting [31]). The LEL in the data set with rat [7] (setting [32]) stood at 40 mg/kg/day; in the data set on mouse [8] (setting [33]), 90 mg/kg/day. Also, the lowest observed adverse effect level (LOAEL) in the data set with mouse [3] (setting [24]) is > 1430 mg/kg/day; in the data set with mouse [3] (setting [25]), > 1430 mg/kg/day; in the data set with mouse [3] (setting [26]) it was > 1430 mg/kg/day; in the data set on rat [4] (setting [27]) it was 30 mg/kg/day; in the data set on mouse [5] (setting [29]), 1880 mg/kg/day; with rat [6] (setting [31]), 625 mg/kg/day. The LOAEL was 625 mg/kg/day in the data set with rat [7] (systemic / in life observation / body weight / body weight + systemic / pathology microscopic / liver / cytomegaly + systemic / pathology …) and 1000 mg/kg/day in the data set with mouse [8] (systemic / in life observation / body weight / body weight). Also, the NEL in the data set with mouse [3] (setting [24]) was < 357 mg/kg/day; in the data set on mouse [3] (setting [25]), 715 mg/kg/day; in the data set with mouse [3] (group: reproductive, reproductive / offspring survival early / birth index / birth index) it was 715 mg/kg/day; in the data set with rat [4] (setting [28]) it was < 30 mg/kg/day; in the data set on mouse [5] (setting [29]), 480 mg/kg/day; in the data set on rat [6] (setting [30]), 310 mg/kg/day. Further, the NEL was < 40 mg/kg/day in the data set with rat [7] (setting [32]) and < 90 mg/kg/day with mouse [8] (setting [33]). Also, the NOAEL with mouse [3] (setting [24]) was ≥ 1430 mg/kg/day; with mouse [3] (setting [25]) it was ≥ 1430 mg/kg/day; with mouse [3] (setting [26]), ≥ 1430 mg/kg/day; in the data set on rat [4] (setting [27]), < 30 mg/kg/day; with mouse [5] (setting [29]), 930 mg/kg/day; with rat [6] (setting [30]) it was 310 mg/kg/day. The NOAEL in the data set on rat [7] (systemic / in life observation / body weight / body weight + systemic / in life observation / clinical signs / reduced body size + systemic…) turned out to be 310 mg/kg/day; in the data set with mouse [8] (setting [33]), 450 mg/kg/day.
Take `CCN(CC)CC(=O)Nc1c(C)cccc1C` [Lidocaine]: in the data set with rat [9], the LEL came to 6 mg/kg/day, the LOAEL was > 9 mg/kg/day, the NEL is 3 mg/kg/day and the no-observed-adverse-effect level (NOAEL) was ≥ 9 mg/kg/day.
As for `CC1OC(C)OC(C)OC(C)O1` (stereo unspecified) [Metaldehyde acetaldehyde tetramer], the LEL in the data set with mouse [10] was found to be 178 mg/kg/day; in the data set with mouse [11], 135 mg/kg/day; in the data set on rat [12] (setting [34]), 134 mg/kg/day; with rat [12] (group: parental, systemic / in life observation / body weight / body weight + systemic / in life observation / body weight / body weight gain), 80.5 mg/kg/day; in the data set with rat [13] (setting [37]), 3 mg/kg/day; in the data set with mouse [14], 48.9 mg/kg/day. The LEL in the data set on dog [15] (setting [38]) came to 10 mg/kg/day; in the data set with dog [16] (setting [39]), 60 mg/kg/day. The LOAEL was determined as 178 mg/kg/day in the data set on mouse [10]; 135 mg/kg/day in the data set on mouse [11]; 134 mg/kg/day in the data set with rat [12] (setting [34]); 134 mg/kg/day in the data set with rat [12] (setting [35]); 44 mg/kg/day in the data set with rat [13] (setting [36]); 48.9 mg/kg/day in the data set on mouse [14]. Also, the LOAEL came out at 30 mg/kg/day with dog [15] (systemic / in life observation / mortality / mortality + systemic / pathology microscopic / prostate / atrophy + systemic / pathology …) and 60 mg/kg/day with dog [16] (setting [39]). Besides, the NEL with mouse [10] is 54 mg/kg/day; in the data set with mouse [11] it was < 135 mg/kg/day; in the data set with rat [12] (setting [34]), 64.9 mg/kg/day; in the data set with rat [12] (group: parental, systemic / in life observation / body weight / body weight + systemic / in life observation / body weight / body weight gain + systemic / in…) it was 4.03 mg/kg/day; in the data set on rat [13] (setting [37]) it was < 3 mg/kg/day; with mouse [14], 15.9 mg/kg/day. Also, the NEL was < 10 mg/kg/day with dog [15] (setting [38]) and 20 mg/kg/day with dog [16] (setting [40]). Also, the no-observed-adverse-effect level (NOAEL) in the data set with mouse [10] is 54 mg/kg/day; in the data set with mouse [11] it was < 135 mg/kg/day; in the data set with rat [12] (setting [34]), 64.9 mg/kg/day; in the data set on rat [12] (setting [35]), 64.9 mg/kg/day; in the data set on rat [13] (setting [36]), 2 mg/kg/day; with mouse [14], 15.9 mg/kg/day. Further, the NOAEL in the data set on dog [15] (systemic / in life observation / mortality / mortality + systemic / clinical chemistry / alkaline phosphatase (alp/alk) / alkaline …) stood at 10 mg/kg/day; with dog [16] (setting [40]), 20 mg/kg/day.
Turning to `c1ccc(C2CO2)cc1` (stereo unspecified) [Styrene oxide], the LEL in the data set with mouse [17] turned out to be 900 mg/kg/day; with mouse [18], 375 mg/kg/day; in the data set with rat [19] (setting [42]) it was 275 mg/kg/day; in the data set on rat [20] it was 50 mg/kg/day; in the data set on rat [21] (systemic / pathology microscopic / liver / hyperplasia), 750 mg/kg/day. In addition, the lowest observed adverse effect level (LOAEL) with mouse [17] was > 900 mg/kg/day; with mouse [18], > 750 mg/kg/day; with rat [19] (setting [41]), > 550 mg/kg/day; in the data set on rat [20] it was > 250 mg/kg/day; in the data set with rat [21] (setting [43]), > 3000 mg/kg/day. Besides, the NEL was 600 mg/kg/day with mouse [17]; < 375 mg/kg/day with mouse [18]; < 275 mg/kg/day with rat [19] (setting [42]); < 50 mg/kg/day in the data set on rat [20]; 360 mg/kg/day with rat [21] (setting [43]). The NOAEL with mouse [17] is ≥ 900 mg/kg/day; in the data set with mouse [18], ≥ 750 mg/kg/day; with rat [19] (setting [41]), ≥ 550 mg/kg/day; in the data set on rat [20] it was ≥ 250 mg/kg/day; in the data set with rat [21] (setting [43]), ≥ 3000 mg/kg/day.

Broadly, the LOAEL is the lowest tested level that showed an adverse finding. By NOAEL is commonly meant the highest dose or exposure tested at which no adverse effect was seen.

(Values after EPA's ToxRefDB 2.)
